Measurements reported in patent publication US20110172204A1, “COMPOUNDS AND THEIR USE” (TAKEDA PHARMACEUTICAL COMPANY LIMITED, priority 2010, published 2011).

Columns and labels:
H3 receptor [1] = biological target: T1, H3 receptor (Mus musculus, UniProt P58406); settings: mice; cited from earlier work
T1 construct: host or cells: living mouse (endogenous receptor)

H3 receptor [2] = biological target: T1, H3 receptor; settings: lean and obese mice; cited from earlier work
rat H3 receptors = rat H3 receptors (Rattus norvegicus, UniProt Q9QYN8); settings: cited from earlier work
H3 receptor [3] = biological target: T2, H3 receptor (Rattus norvegicus, UniProt Q9QYN8); settings: cited from earlier work
T2 construct: host or cells: living rat (endogenous receptor)

human H3 receptor [4] = biological target: T3, human H3 receptor (Homo sapiens, UniProt Q9Y5N1); experiment: In vitro H3 binding assay (3H-NαMH competition binding); set-up: expressed in transfected cells; settings: membranes of CHO-K1 cells expressing human H3; inhibition of specific binding of 2 nM 3H-NαMH; read-out: hH3 binding IC50
Description: The ability of compounds to bind to the H3 receptor was determined by measuring the reduction in tritiated N-α-methyl-histamine (^3H-NαMH) binding in a competition binding assay. Changes in the levels of bound radio-label were monitored by scintillation counting with a Trilux Microbeta (Perkin Elmer).
Membranes were prepared from CHO-K1 cells stably expressing human H3 receptor; routinely grown as monolayers in Ham's F12 medium (Invitrogen) supplemented with 10% Foetal Clone III (Hyclone), 500 μg/ml G418 (Invitrogen), 5 μg/ml blasticidine S (Invivogen) and 50 μg/ml Gentamicin (Sigma) in 5% CO2 at 37° C. Cells were grown to 80-95% confluency, rinsed once with 1×PBS (Invitrogen) and detached by incubating with 1×PBS containing 0.02% EDTA (Sigma) for 10 minutes at room temperature. Cells were collected by centrifugation at 900×g, 4° C. for 10 minutes. Cells were rinsed once with 1×PBS and re-suspended in ice cold homogenisation buffer (50 mM Tris-HCl (pH 7.4), 2.5 mM EDTA, 5 mM MgCl2, 200 mM Sucrose) at 1×10^7 cells/ml and kept on ice. Cells were homogenised on ice and debris removed by centrifugation at 500×g, 4° C. for 5 minutes. The resulting supernatant was centrifuged at 75,600×g, 4° C. for 60 minutes. Membranes were suspended in homogenisation buffer, protein concentration was determined (BCA Protein Assay kit (Pierce)), diluted to 2.2 mg/ml, dispensed into 1 ml aliquots and stored at −80° C.
Membranes were thawed on ice, sonicated with 4 cycles of 20 pulses (50% amplitude, 0.5 pulse) (UP200S Hielscher) on ice, diluted in assay buffer (50 mM Tris-HCl (pH7.4), 5 mM MgCl2) to 62.5 μg/ml. Compound was serially diluted in DMSO before being diluted 1:10 with assay buffer. 5 μg of membrane in 80 μl of assay buffer was added per well of a 96 well polystyrene plate (Corning). 10 μl of compound was added per well. The assay was initiated by the addition of 10 μl of 20 nM ^3H-NαMH per well and incubated for one hour at room temperature with shaking Total binding was determined in the presence of 1% DMSO and non-specific binding was determined by the inclusion of 1 μM R-α-methyl-histamine (RαMH). Incubations were then filtered through filtermat A (Perkin Elmer) and washed three times with assay buffer. Filtermats were dried at 42° C. for two hours, scintillant added and the level of bound radioactivity determined.
IC50 values for compounds were determined from seven point log scale dose-response studies and represent the concentration of compound required to inhibit 50% of the specific binding of 2 nM ^3H-NαMH (difference between total and non-specific binding). Curves were generated using the average of duplicate wells for each data point and analyzed using nonlinear regression of sigmoidal dose response (variable slope).

human H3 receptor [5] = biological target: T3, human H3 receptor; experiment: In vitro H3 functional assay (cAMP response element driven luciferase reporter); assay type: cell-based; set-up: expressed in transfected cells; settings: CHO(dhfr+)-cre-luc cells expressing human H3; forskolin 1 μM, RαMH 10 nM; read-out: hH3 functional IC50
Description: The functional activity of compounds at the H3 receptor was determined by measuring changes in the level of intracellular cAMP using a cAMP response element driven luciferase reporter assay. The changes in luciferase expression were monitored by a luminescence plate reader, Analyst HT (MDS Analytical). Increases in intracellular cAMP were readily detected upon activation of protein kinase A by forskolin (Sigma) and suppression of this response observed with the application of the H3 receptor agonist RαMH (Sigma).
CHO(dhfr^+)-cre-luc cells stably expressing human H3 receptor were routinely grown as monolayers in Minimal Essential Medium α (MEMα) (Invitrogen) supplemented with 10% dialysed FBS (Hyclone), in 5% CO2 at 37° C. 48 hours prior to assay, cells were seeded in clear-base white walled 384-well plates (Corning) at a density of 5000 cells/well. On the day of assay, growth media was removed and replaced with 15 μl of assay buffer (MEMα, 5 mg/ml fatty acid free BSA (Sigma)) per well. Cells were then incubated for 30 minutes at 37° C., 5% CO2. Compound was serially diluted in DMSO before being diluted 1:10 with assay buffer. 2.5 μl of compound diluted in assay buffer was added and cells incubated for 5 minutes at 37° C., 5% CO2. 2.5 μl of each reagent was then added in the following order: RαMH (10 nM), isobutylmethylxanthine (1-methyl-3-(2-methylpropyl)-7H-purine-2,6-dione; IBMX) (500 μM) (Sigma) and forskolin (1 μM). Cells were then incubated for 90 minutes at 37° C., 5% CO2, followed by 30 minutes at room temperature. At the end of incubation 25 μl of Steadylite reagent (Perkin Elmer) was added, plates were sealed and placed on a shaker for 5 minutes. The level of light output to determine the level of luciferase expression was then measured.
IC50 values for compounds were determined from ten point half log scale dose-response studies and represent the concentration of compound required to […] 50% inhibition of forskolin stimulated cells in the presence of RαMH alone. Curves were generated using the average of duplicate wells for each data point and analyzed using nonlinear regression of four parameter dose response.

H3 receptor [6] = settings: a number of acute pain models; cited from earlier work
H3 receptor [7] = biological target: T2, H3 receptor; settings: cited from earlier work; remark: listed apart in the source
human H3 receptor [8] = biological target: T3, human H3 receptor; settings: cited from earlier work

T3 sequence (Q9Y5N1 whole entry): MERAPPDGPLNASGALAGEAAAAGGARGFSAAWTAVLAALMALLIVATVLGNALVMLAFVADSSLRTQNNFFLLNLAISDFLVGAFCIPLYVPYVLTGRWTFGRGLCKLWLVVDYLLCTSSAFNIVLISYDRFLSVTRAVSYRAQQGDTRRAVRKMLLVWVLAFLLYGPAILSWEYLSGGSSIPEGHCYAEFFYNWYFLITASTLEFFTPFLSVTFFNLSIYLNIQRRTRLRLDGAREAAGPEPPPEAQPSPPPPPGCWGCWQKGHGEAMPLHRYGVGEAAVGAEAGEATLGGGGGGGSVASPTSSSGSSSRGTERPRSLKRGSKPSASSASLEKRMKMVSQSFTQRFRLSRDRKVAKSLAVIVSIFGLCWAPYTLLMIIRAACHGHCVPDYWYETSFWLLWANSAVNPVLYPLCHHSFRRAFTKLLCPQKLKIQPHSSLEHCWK
T2 sequence (Q9QYN8 whole entry): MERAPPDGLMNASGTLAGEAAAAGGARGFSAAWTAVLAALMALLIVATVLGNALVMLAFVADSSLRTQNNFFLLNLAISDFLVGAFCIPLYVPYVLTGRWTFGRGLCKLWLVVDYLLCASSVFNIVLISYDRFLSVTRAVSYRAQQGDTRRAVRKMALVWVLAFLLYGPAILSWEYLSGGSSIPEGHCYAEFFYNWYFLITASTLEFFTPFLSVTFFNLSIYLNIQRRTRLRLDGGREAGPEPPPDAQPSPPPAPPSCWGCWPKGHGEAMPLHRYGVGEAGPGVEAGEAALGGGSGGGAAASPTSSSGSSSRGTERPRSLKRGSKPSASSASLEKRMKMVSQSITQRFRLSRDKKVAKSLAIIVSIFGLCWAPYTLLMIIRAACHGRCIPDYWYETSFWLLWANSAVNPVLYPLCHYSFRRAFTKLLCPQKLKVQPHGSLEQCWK
T1 sequence (P58406 whole entry): as the sequence (Q9QYN8 whole entry) above, with T15A, A286T, A290G, R387H, I389V counted along it
Chain of rat H3 receptors (Q9QYN8 whole entry): as the sequence (Q9QYN8 whole entry) above

Row | SMILES | IC50 (human H3 receptor [4]) [nM] | IC50 (human H3 receptor [5]) [nM] | further results
1 | NC(=NCc1ccc(Cl)cc1)SCCCc1cnc[nH]1 [clobenpropit] |  |  | histamine release in the hypothalamus (H3 receptor [1]): increases histamine release; energy intake (H3 receptor [2]): reducing energy intake
2 | CNC(=O)c1cnc(Oc2ccc3c(c2)CCN(C2CCC2)CC3)cn1 [GSK207040] |  |  | affinity for rat H3 receptors (rat H3 receptors): high affinity; tactile allodynia (H3 receptor [3]): reduced tactile allodynia
3 | CO[C@@H](C)CN(C)c1ncc(C(=O)NCc2ccc3c(c2)CCN(C2CCC2)CC3)cn1 [Example 8, N-[(3-cyclobutyl-2,3,4,5-tetrahydro-1H-3-benzazepin-7-yl)methyl]-2-{[(2S)-2-methoxypropyl](methyl)amino}pyrimidine-5-carboxamide] | 0.73 | 2 | 
4 | S=C(NC1CCCCC1)N1CCC(c2cnc[nH]2)CC1 [thioperamide] |  |  | antinociceptive effect (H3 receptor [6]): antinociceptive effect
5 | C[C@H]1CC[C@H](C)N1CCCOc1ccc(-c2ccc(C(=O)N3CCOCC3)cc2)cc1 [Example A-349821] |  |  | cognition-enhancing effects (H3 receptor [7]): cognition-enhancing effects
6 | CC(C)N1CCCN(C(=O)C2CCN(c3ccc(C(F)(F)F)nc3)CC2)CC1 [GSK334429] |  |  | affinity for rat H3 receptors (rat H3 receptors): high affinity; tactile allodynia (H3 receptor [3]): reduced tactile allodynia; affinity for human H3 receptors (human H3 receptor [8]): high affinity
7 | CO[C@H](C)CN(C)c1ncc(C(=O)NCc2ccc3c(c2)CCN(C2CCC2)CC3)cn1 [Example 9, N-[(3-cyclobutyl-2,3,4,5-tetrahydro-1H-3-benzazepin-7-yl)methyl]-2-{[(2R)-2-methoxypropyl](methyl)amino}pyrimidine-5-carboxamide] | 4 | 8 | 

Further lines, with some results ahead:

Row | IC50 (human H3 receptor [4]) [nM] | IC50 (human H3 receptor [5]) [nM] | SMILES | further results
8 | 5 | 6 | CO[C@@H]1CCN(c2ncc(C(=O)N(C)Cc3ccc4c(c3)CCN(C3CCC3)CC4)cn2)C1 [Example 7, N-[(3-cyclobutyl-2,3,4,5-tetrahydro-1H-3-benzazepin-7-yl)methyl]-2-[(3R)-3-methoxypyrrolidin-1-yl]-N-methylpyrimidine-5-carboxamide] | 
9 | 1 | 3 | O=C(NCc1ccc2c(c1)CCN(C1CCC1)CC2)c1cnc(N2CCC(F)(F)CC2)nc1 [Example 5, N-((3-cyclobutyl-2,3,4,5-tetrahydro-1H-3-benzazepin-7-yl)methyl)-2-(4,4-difluoropiperidin-1-yl)pyrimidine-5-carboxamide] | 
10 | 2 | 2 | CO[C@H]1CCN(c2ncc(C(=O)NCc3ccc4c(c3)CCN(C3CCC3)CC4)cn2)C1 [Example 2, N-[(3-cyclobutyl-2,3,4,5-tetrahydro-1H-3-benzazepin-7-yl)methyl]-2-[(3S)-3-methoxypyrrolidin-1-yl]pyrimidine-5-carboxamide] | 
11 | 2 | 3 | O=C(NCc1ccc2c(c1)CCN(C1CCC1)CC2)c1cnc(N2CCC(F)(F)C2)nc1 [Example 4, N-[(3-cyclobutyl-2,3,4,5-tetrahydro-1H-3-benzazepin-7-yl)methyl]-2-(3,3-difluoropyrrolidin-1-yl)pyrimidine-5-carboxamide] | 
12 | 4 | 2 | CO[C@H]1CCN(c2ncc(C(=O)N(C)Cc3ccc4c(c3)CCN(C3CCC3)CC4)cn2)C1 [Example 6, N-[(3-cyclobutyl-2,3,4,5-tetrahydro-1H-3-benzazepin-7-yl)methyl]-2-[(3S)-3-methoxypyrrolidin-1-yl]-N-methylpyrimidine-5-carboxamide] | 
13 | 3 | 2 | COC1CN(c2ncc(C(=O)NCc3ccc4c(c3)CCN(C3CCC3)CC4)cn2)C1 [Example 3, N-((3-cyclobutyl-2,3,4,5-tetrahydro-1H-3-benzazepin-7-yl)methyl)-2-(3-methoxyazetidin-1-yl)pyrimidine-5-carboxamide] | 
14 | 0.5 | 1 | CO[C@@H]1CCN(c2ncc(C(=O)NCc3ccc4c(c3)CCN(C3CCC3)CC4)cn2)C1 [Example 1, N-[(3-cyclobutyl-2,3,4,5-tetrahydro-1H-3-benzazepin-7-yl)methyl]-2-[(3R)-3-methoxypyrrolidin-1-yl]pyrimidine-5-carboxamide] | 
